# Reference: patent US20200345725A1, “Methods and Compositions for Treating Cancer” (Omeros Corporation, priority 2019, published 2020)
# Where “and” joins values, the source holds several entries; their conditions need not be identical. Identical values can stand only once.
# How the values were obtained:
# Format in all cases: cell-based
# [1] = molecular target: GPR174 (Homo sapiens, UniProt Q9BXC1); test: CRE-Luc reporter Gs signaling assay with GPR174; parameters: host or cells: HEK293 or CHO cell lines (ATCC); conditions: for Gs pathway in the presence of GPR174 (CRE-Luc reporter): increasing concentrations of compound; for Fold decrease in Gs signaling activity / EC50: pCRE-Luc reporter; for EC50: multiple values = separate experiments
# Chain of GPR174 (Q9BXC1 whole entry): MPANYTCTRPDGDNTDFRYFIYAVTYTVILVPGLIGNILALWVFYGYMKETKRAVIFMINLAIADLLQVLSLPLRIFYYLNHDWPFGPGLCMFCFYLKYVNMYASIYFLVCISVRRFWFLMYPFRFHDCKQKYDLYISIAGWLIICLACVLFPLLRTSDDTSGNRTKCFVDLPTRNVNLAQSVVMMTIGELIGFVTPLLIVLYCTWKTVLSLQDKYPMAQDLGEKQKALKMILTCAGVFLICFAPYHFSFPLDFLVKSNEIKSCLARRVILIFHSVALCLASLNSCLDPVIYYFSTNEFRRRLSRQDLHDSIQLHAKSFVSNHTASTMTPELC
# [2] = molecular target: T1, ADBR2 (Homo sapiens, UniProt P07550); test: CRE-Luc reporter assay with control receptor ADBR2
# T1 construct: host or cells: HEK293 or CHO cell lines (ATCC)
# T1 sequence (P07550 whole entry): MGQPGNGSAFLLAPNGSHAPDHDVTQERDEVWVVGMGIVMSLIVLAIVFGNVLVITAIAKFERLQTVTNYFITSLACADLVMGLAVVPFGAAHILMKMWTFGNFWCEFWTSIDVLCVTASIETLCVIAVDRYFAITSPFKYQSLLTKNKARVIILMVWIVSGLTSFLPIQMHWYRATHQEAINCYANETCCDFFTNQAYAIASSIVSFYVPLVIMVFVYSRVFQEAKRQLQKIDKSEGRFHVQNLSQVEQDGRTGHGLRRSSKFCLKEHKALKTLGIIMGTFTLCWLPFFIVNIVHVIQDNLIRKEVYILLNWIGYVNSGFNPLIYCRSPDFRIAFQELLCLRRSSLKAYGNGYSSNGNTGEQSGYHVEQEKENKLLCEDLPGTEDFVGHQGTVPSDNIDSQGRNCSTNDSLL
# [3] = tested on: mouse splenocytes; test: IL-2 levels in supernatants of cultured mouse splenocytes (WT or GPR174-KO) stimulated with anti-CD3 and anti-CD28, MSD platform; conditions: 2 days
# Experimental: To make single cell suspensions from mouse splenocytes, spleens were cut into 1-2 mm^3 pieces with a razor blade and incubated at 37° C. with 10 μg/mL DNase and 1 mg/mL Collagenase D with agitation for 90 min. Spleen fragments and cells were then pressed through a nylon screen, and the resulting cell suspension was washed. In 96-well flat-bottom plates, splenocytes were cultured in quadruplicate with the following conditions for 2 days, after which supernatants were tested for cytokine levels with the MSD platform.
# Anti-CD3 (clone 2C11; 0.1 μg/mL)
# GPR174 inhibitor (compound 10, 1 μM or 0.3 μM, or DMSO vehicle control)
# GPR174 inhibitor (compound 6, 0.3 μM, or DMSO vehicle control)
# Adenosine receptor agonist (NECA, 0.1 μM)
# [4] = tested on: human PBMCs; test: Cytokines in supernatants of anti-CD3/anti-CD28 stimulated human PBMC (Examples 6, 8, 9); conditions: for IL-2 in culture supernatants (fold over vehicle): day 2 post-stimulation, compound 10 at 1, 3, 10 μM
# Experimental: The effect of compound 10 on IL-2 and IFN-γ production in human PBMCs was determined as follows. PBMCs from a single donor were adjusted to a density of 2×10^6 cells/mL, stimulated with 100 ng/mL of anti-CD3 and 100 ng/mL of anti-CD28 antibodies and treated with 1 μM, 3 μM, or 10 μM of compound 10. Supernatant from these cells was taken on day 2 post-stimulation and the levels of IL-2 and IFN-γ were determined by ELISA assay using Ready-SET-Go ELISA kits from Affimetrix Ebioscience according to the manufacturer's instructions.
# The effect of compound 10 on IL-2 production in human PBMCs was determined as follows. […] Supernatant from these cells was taken on day 3 post-stimulation and the levels of IL-2 were determined by ELISA assay using Ready-SET-Go™ ELISA kits from Affimetrix Ebioscience and LEGENDplex™ bead-based immunoassays from BioLegend according to the manufacturer's instructions.
# The effect of compound 10 on IL-2 production in human PBMC from each donor was determined as follows. PBMC from each donor were adjusted to a density of 2×10^6 cells/mL, stimulated with 100 ng/mL of anti-CD3 and 100 ng/mL of anti-CD28 antibodies and treated with 30 μM compound 10. Supernatant from these cells was taken on day 2 post-stimulation and the levels of IL-2 were determined by ELISA assay using LEGENDplex™ bead-based immunoassays from BioLegend (San Diego, Calif.) according to the manufacturer's instructions.
# The effect of compound 10 on the production of a panel of additional cytokines (interleukin 5 (IL-5), interleukin 13 (IL-13), interleukin 6 (IL-6), interleukin 9 (IL-9), interleukin 10 (IL-10), interferon gamma (IFN-γ), tumor necrosis factor alpha (TNF-α), interleukin 17A (IL-17A), interleukin 17F (IL-17F), interleukin 4 (IL-4) and interleukin 22 (IL-22)) in pooled human PBMC obtained from eight donors was determined as follows. PBMC from eight donors were pooled, then adjusted to a density of 2×10^6 cells/mL, stimulated with 100 ng/mL of anti-CD3 and 100 ng/mL of anti-CD28 antibodies and treated with 30 μM compound 10. Supernatant from these cells was taken on day 2 post-stimulation and the levels of IL-5, IL-13, IL-6, IL-9, IL-10, IFN-γ, TNF-α, IL-17A, IL-17F, IL-4 and […] were determined by ELISA using LEGENDplex™ bead-based immunoassays from BioLegend (San Diego, Calif.) according to the manufacturer's instructions.
# [5] = Example 9, day 2, PBMC of eight donors, 30 μM
SMILES,Gs pathway in the presence of GPR174 (CRE-Luc reporter) [1],Fold decrease in Gs signaling activity [1],EC50 [1],Gs pathway in the presence of ADBR2 (CRE-Luc reporter) [2],"increase of IL-2 levels ([3]; GPR174-KO splenocytes, NECA 0.1 μM, compounds 10, 6 0.3 μM, ZM-241385 0.2 μM, FIG. 70B)",IL-2 in culture supernatants (fold over vehicle) ([4]; Example 6),"increase of IL-2 levels ([3]; WT splenocytes, no NECA, compound 10 1 μM, ZM-241385 0.1 μM, FIG. 68A)","IFN-γ in culture supernatants, fold over vehicle ([4]; Example 6, day 2, 1, 3, 10 μM)","IL-2 in culture supernatants ([4]; Example 8, day 3, single donor, 3, 10, 30, 60 μM)","IFN-γ in culture supernatants, fold over vehicle [4, 5]","IL-6 in culture supernatants, fold over vehicle [4, 5]","IL-10 in culture supernatants, fold over vehicle [4, 5]","IL-17A in culture supernatants, fold over vehicle [4, 5]","TNF-α in culture supernatants, fold over vehicle [4, 5]","IL-2 in culture supernatants, fold over vehicle, average ([4]; Example 9, day 2, eight donors, 30 μM)"
O=C(c1ccccc1)N1CCN(c2cc(N3CCCCC3)c(F)cc2[N+](=O)[O-])CC1 [compound 6],inhibited,3.8 fold,0.4 µM and 0.3 µM,did not inhibit,modest off-target activity,increased IL-2 levels,,,,,,,,,
CC1CCN(c2cc(N3CCN(S(=O)(=O)c4ccccc4)CC3)c([N+](=O)[O-])cc2F)CC1 [compound 10],inhibited,5.1 fold,0.2 µM and 0.5 µM,did not inhibit,,increased IL-2 levels in a dose-dependent manner,greater than 4 fold,increased interferon gamma (IFN-γ) in a dose-dependent manner,increased IL-2 levels in culture supernatants in a dose-dependent manner,statistically significant fold increase,statistically significant fold increase,statistically significant fold increase,statistically significant fold decrease,statistically significant fold increase,about 5 fold
